In US10300067B2, “Tetrahydropyridopyrimidine compound or salt thereof” (TAIHO PHARMACEUTICAL CO., LTD., priority 2014, dated 2019):

Key:
Format in all cases: cell-based
[1] = system: AR positive human prostate cancer cells VCaP; assay: Agonist activity for AR (cell proliferation rate of VCaP cells); details: 72 hours, 2 to 10000 nmol/L, more than 10% at any concentration = agonist activity for AR
Procedure: AR positive human prostate cancer cells VCaP (In Vivo 15:163-168, 2001) were seeded in a clear bottom 96 well microplate (BD) at 1.5×10^4/well with phenol red free RPMI1640 containing 5% DCC-FBS (hereinbelow, the medium is referred to as an evaluation medium), and then cultured overnight. The culture was added with the evaluation medium containing the compound of Examples or the compound of Comparative Examples (final concentration of the compound of Examples or the compound of Comparative Examples: 2, 5, 14, 41, 123, 370, 1111, 3333, or 10000 nmol/L), followed by culture for 72 hours. Then, the number of viable cells was counted (test group). As a control, the cells were cultured after being added with the evaluation medium only, and the number of viable cells was counted (control group). The number of viable cells was measured by using CellTiter-Glo™ Luminescent Cell Viability Assay (Promega). From the measured number of viable cells, cell proliferation rate with respect to the compound of Examples or the compound of Comparative Examples was calculated based on the number of viable cells measured in the case of using the evaluation medium only. Cell proliferation rate (%) =(Number of viable cells in test group−Number of viable cells in control group)/(Number of viable cells in control group)×100
By considering an error in the number of viable cells measured in the case of using the evaluation medium only, when the cell proliferation rate was more than 10% at any concentration of the 9 concentrations which had been evaluated, it was determined to have an agonist activity for AR.

human androgen receptor = human androgen receptor (Homo sapiens (Human), UniProt P10275); assay: Antagonist activity for AR (pMMTV-luc reporter transcription activity in transfected COS-7 cells, DHT 1 nmol/L); details: for IC50: 50% transcription activity inhibition concentration, COS-7 cells with pMMTV-luc and pEX-hAR, DHT 1 nmol/L, 24 hours; for antagonist activity for AR (in words): COS-7 reporter assay
Chain of human androgen receptor (P10275 whole entry): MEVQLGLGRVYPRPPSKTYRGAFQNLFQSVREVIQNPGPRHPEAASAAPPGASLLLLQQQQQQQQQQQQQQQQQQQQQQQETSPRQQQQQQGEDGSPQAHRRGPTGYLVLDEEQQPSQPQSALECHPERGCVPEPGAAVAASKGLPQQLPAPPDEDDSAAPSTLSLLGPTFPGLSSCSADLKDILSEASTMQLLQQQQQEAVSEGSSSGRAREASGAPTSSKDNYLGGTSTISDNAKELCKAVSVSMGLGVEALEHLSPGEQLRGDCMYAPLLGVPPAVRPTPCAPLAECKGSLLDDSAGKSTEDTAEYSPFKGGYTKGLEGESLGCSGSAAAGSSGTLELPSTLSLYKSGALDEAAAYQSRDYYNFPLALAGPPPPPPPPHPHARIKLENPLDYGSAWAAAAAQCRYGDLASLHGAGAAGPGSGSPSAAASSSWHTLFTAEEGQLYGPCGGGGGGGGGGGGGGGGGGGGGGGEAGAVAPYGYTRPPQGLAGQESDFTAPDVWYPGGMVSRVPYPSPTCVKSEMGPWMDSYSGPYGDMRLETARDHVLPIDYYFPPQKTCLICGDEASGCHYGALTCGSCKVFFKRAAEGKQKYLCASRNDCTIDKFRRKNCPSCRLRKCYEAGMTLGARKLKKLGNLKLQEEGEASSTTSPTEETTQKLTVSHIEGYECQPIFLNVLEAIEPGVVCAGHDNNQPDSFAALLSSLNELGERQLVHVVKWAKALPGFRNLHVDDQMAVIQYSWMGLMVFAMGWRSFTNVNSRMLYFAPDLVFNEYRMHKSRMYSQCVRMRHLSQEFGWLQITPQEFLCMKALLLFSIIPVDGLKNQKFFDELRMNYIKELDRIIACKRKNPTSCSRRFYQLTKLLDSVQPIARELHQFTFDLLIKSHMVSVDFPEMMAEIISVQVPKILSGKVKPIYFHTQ
Procedure: Antagonist activity for AR was evaluated according to the following method. COS-7 cells (ATCC) were transfected with pMMTV-luc vector (reporter plasmid having, as an androgen response element, […] long terminal repeat) and pEX-hAR vector (human androgen receptor expression vector: which expresses human AR gene under control of CMV promoter) by using Nucleofector (registered trademark) Kit R (Lonza) as a transfection reagent and Amaxa (Lonza). The COS-7 cells obtained after transfection were seeded in a clear bottom 96 well microplate (BD) at 1.5×10^4/well with phenol red free RPMI1640 containing 10% charcoal-treated fetal bovine serum (hereinbelow, DCC-FBS) (hereinbelow, the medium is referred to as an evaluation medium), and then cultured overnight. […] Then, the transcription activity value was measured. The transcription activity was measured by using Bright-Glo™ Luciferase Assay System (Promega).

androgen receptor = androgen receptor (Homo sapiens (Human), UniProt P10275, T878A); assay: Activity of reducing expression level of androgen receptor (Western blotting of LNCaP cell lysate); details: 48 hours
Chain of androgen receptor (P10275 whole entry T878A): as the sequence (P10275 whole entry) above, with T878A counted along it
Procedure: AR positive human prostate cancer cells LNCaP were seeded in a clear bottom 6 well microplate (BD) at 3.5×10^5/well with phenol red free RPMI1640 containing 5% FBS (hereinbelow, the medium is referred to as an evaluation medium), and then cultured overnight. The culture was added with the evaluation medium containing the compound of Examples or the compound of Comparative Examples such that the final concentration of the compound of Examples or the compound of Comparative Examples was 10000 nmol/L, followed by culture for 48 hours. After culture for 48 hours, the medium was removed and the cells were washed with PBS and added with 0.1 mL of Lysis buffer (M-PER added with Protease Inhibitor Cocktail), followed by keeping at 4° C. for 20 minutes. After cell lysis, the cell solution was centrifuged to recover the supernatant as cell lysate. […] The antibody-reacting band (anti AR receptor) was quantified by LAS-3000 (FUJIFILM) using Super Signal West Pico Substrate (Thermo Scientific) as a detection reagent.

Structure (SMILES) | Cell proliferation rate (%) [1] [%] | IC50 (human androgen receptor) [nM] | 10 μM AR expression reducing activity (androgen receptor) | antagonist activity for AR (in words) (human androgen receptor)
C[C@@H](NC(=O)c1sc(Nc2ncnc3c2CCN(c2ccc(C#N)c(C(F)(F)F)c2)C3)nc1C(F)(F)F)c1nnco1 [Example 37, (R)—N-(1-(1,3,4-Oxadiazol-2-yl)ethyl)-2-((7-(4-cyano-3-(trifluoromethyl)phenyl)-5,6,7,8-tetrahydropyrido[3,4-d]pyrimidin-4-yl)amino)-4-(trifluoromethyl) thiazol-5-carboxamide] | 0.9 | 170 | reduced (When the AR expression reducing activity is 50% or more, it is described as “reduced”) | –
CC(C)(COc1ncc(Nc2ncnc3c2CCN(c2ccc(C#N)c(C(F)(F)F)c2)C3)cc1Cl)n1cnnn1 [Example 52, 4-(4-((5-Chloro-6-(2-methyl-2-(1H-tetrazol-1-yl)propoxy)pyridin-3-yl)amino)-5,6-dihydropyrido[3,4-d]pyrimidin-7(8H)-yl)-2-(trifluoromethyl)benzonitrile] | −3.4 | 150 | reduced (When the AR expression reducing activity is 50% or more, it is described as “reduced”) | –
N#Cc1ccc(N2CCc3c(ncnc3Nc3ccc(C4(O)CC4)cn3)C2)cc1C(F)(F)F [Example 12, 4-(4-((5-(1-Hydroxycyclopropyl)pyridin-2-yl)amino)-5,6-dihydropyrido[3,4-d]pyrimidin-7(8H)-yl)-2-(trifluoromethyl)benzonitrile] | – | 170 | reduced (When the AR expression reducing activity is 50% or more, it is described as “reduced”) | –
N#Cc1ccc(N2CCc3c(ncnc3Nc3cccc(-c4ccccc4)c3)C2)cc1C(F)(F)F [Example 4, 4-(4-((1,1′-Biphenyl)-3-ylamino)-5,6-dihydropyrido[3,4-d]pyrimidin-7(8H)-yl)-2-(trifluoromethyl)benzonitrile] | – | 620 | reduced (When the AR expression reducing activity is 50% or more, it is described as “reduced”) | –
CC(C)(O)c1ccc(Nc2ncnc3c2CCN(c2ccc(C#N)c(C(F)(F)F)c2)C3)cc1 [Example 57] | 5.0 | – | reduced (When the AR expression reducing activity is 50% or more, it is described as “reduced”) | –
CC(C)(COc1ncc(Nc2ncnc3c2CCN(c2ccc(C#N)c(C(F)(F)F)c2)C3)cc1F)n1ccnn1 [Example 51, 4-(4-((5-Fluoro-6-(2-methyl-2-(1H-1,2,3-triazol-1-yl)propoxy)pyridin-3-yl)amino)-5,6-dihydropyrido[3,4-d]pyrimidin-7(8H)-yl)-2-(trifluoromethyl)benzonitrile] | −5.4 | 1100 | reduced (When the AR expression reducing activity is 50% or more, it is described as “reduced”) | –
COc1ccc(Nc2ncnc3c2CCN(c2ccc(C#N)c(C(F)(F)F)c2)C3)cc1 [Example 3, 4-(4-((4-Methoxyphenyl)amino)-5,6-dihydropyrido[3,4-d]pyrimidin-7(8H)-yl)-2-(trifluoromethyl)benzonitrile] | 1.0 | 530 | reduced (When the AR expression reducing activity is 50% or more, it is described as “reduced”) | –
CC(C)Oc1ccc(Nc2ncnc3c2CN(c2ccc(C#N)c(C(F)(F)F)c2)CC3)cc1 [Comparative Example 2, 4-(4-((4-Isopropoxyphenyl)amino)-7,8-dihydropyrido[4,3-d]pyrimidin-6(5H)-yl)-2-(trifluoromethyl)benzonitrile, reference compound] | – | > 10000 | <10% | no antagonist activity for AR
CC(C)(O)c1cnc(Nc2ncnc3c2CCN(c2ccc(C#N)c(C(F)(F)F)c2)C3)cc1F [Example 47, 4-(4-((4-Fluoro-5-(2-hydroxypropan-2-yl)pyridin-2-yl)amino)-5,6-dihydropyrido[3,4-d]pyrimidin-7 (8H)-yl)-2-(trifluoromethyl)benzonitrile] | 1.9 | 70 | reduced (When the AR expression reducing activity is 50% or more, it is described as “reduced”) | –
CC(C)(O)c1sc(Nc2ncnc3c2CCN(c2ccc(C#N)c(C(F)(F)F)c2)C3)nc1C(F)(F)F [Example 8, 4-(4-((5-(2-Hydroxypropan-2-yl)-4-(trifluoromethyl)thiazol-2-yl)amino)-5,6-dihydropyrido[3,4-d]pyrimidin-7(8H)-yl)-2-(trifluoromethyl)benzonitrile] | – | 250 | reduced (When the AR expression reducing activity is 50% or more, it is described as “reduced”) | –
CC(C)(O)c1ccc(Nc2ncnc3c2CCN(c2ccc(C#N)c(Cl)c2)C3)nc1F [Example 46, 2-Chloro-4-(4-((6-fluoro-5-(2-hydroxypropan-2-yl)pyridin-2-yl)amino)-5,6-dihydropyrido[3,4-d]pyrimidin-7 (8H)-yl)benzonitrile] | 1.0 | 250 | reduced (When the AR expression reducing activity is 50% or more, it is described as “reduced”) | –
N#Cc1ccc(N2CCc3c(ncnc3Nc3ccc(C(=O)NCC(F)(F)F)nn3)C2)cc1Cl [Example 49, 6-((7-(3-Chloro-4-cyanophenyl)-5,6,7,8-tetrahydropyrido[3,4-d]pyrimidin-4-yl)amino)-N-(2,2,2-trifluoroethyl)pyridazine-3-carboxamide] | – | 2 | reduced (When the AR expression reducing activity is 50% or more, it is described as “reduced”) | –
CC(C)(COc1ncc(Nc2ncnc3c2CCN(c2ccc(C#N)c(C(F)(F)F)c2)C3)cc1F)n1cnnn1 [Example 50, 4-(4-((5-Fluoro-6-(2-methyl-2-(1H-tetrazol-1-yl)propoxy)pyridin-3-yl)amino)-5,6-dihydropyrido[3,4-d]pyrimidin-7(8H)-yl)-2-(trifluoromethyl)benzonitrile] | −3.7 | 320 | reduced (When the AR expression reducing activity is 50% or more, it is described as “reduced”) | –
FC(F)(F)c1ccc(Nc2ncnc3c2CCN(c2ncccc2Cl)C3)cc1 [Comparative Example 4, 7-(3-Chloropyridin-2-yl)-N-(4-(trifluoromethyl)phenyl)-5,6,7,8-tetrahydropyrido[3,4-d]pyrimidin-4-amine, reference compound] | – | > 10000 | <10% | no antagonist activity for AR
N#Cc1ccc(N2CCc3c(ncnc3Nc3nc(C(F)(F)F)c(C(=O)NCC(F)(F)F)s3)C2)cc1C(F)(F)F [Example 26, 2-((7-(4-Cyano-3-(trifluoromethyl)phenyl)-5,6,7,8-tetrahydropyrido[3,4-d]pyrimidin-4-yl)amino)-N-(2,2,2-trifluoroethyl)-4-(trifluoromethyl)thiazol-5-carboxamide] | 5.7 | 60 | reduced (When the AR expression reducing activity is 50% or more, it is described as “reduced”) | –
